Reference: publication PMC6492175, “Glio‐ and neuro‐protection by prosaposin is mediated by orphan G‐protein coupled receptors GPR37L1 and GPR37” (Glia, 2018)
Like-named read-outs stand apart in the source and are kept apart here.

What was measured:
[1] = molecular target: GPR37 (rat, endogenous in astrocytes) (rat (endogenous in primary astrocytes)) (UniProt Q9QYC6)
[2] = molecular target: GPR37L1 (rat, endogenous in astrocytes) (rat (endogenous in primary astrocytes)) (UniProt Q9QYC5)
primary astrocytes = conditions: 5 hr, LDH 24 hr later, PDM
Procedure: Primary cultures of astrocytes were prepared from the cerebral cortices, cerebellum, and brainstem from Wistar rat pups (P2) following protocols described previously (1–3). Briefly, the brains of Wistar P2 pups were dissected out, crudely cross‐chopped and bathed in a solution containing HBSS, DNase I (0.04 mg/mL), trypsin from bovine pancreas (0.25 mg/mL) and BSA (3 mg/mL). The preparation was agitated at 37 °C for 15 min. Trypsinization of the brain tissue was terminated by the addition of equal volumes of culture media comprised of DMEM, 10% heat‐inactivated FBS, 100 U/mL penicillin, and 0.1 mg/mL streptomycin and then centrifuged at 2000 rpm, at room temperature (RT) for 10 min. The supernatant was aspirated, and the remaining pellet was resuspended in 15 mL HBSS containing BSA (3 mg/mL) and DNase I (0.04 mg/mL) and triturated gently. After the cell debris had settled, the cell suspension was filtered through a 40‐μm cell strainer (BD Falcon, BD Biosciences, Franklin Lakes, NJ) and cells were collected after centrifugation. Cells were seeded in a T75 flask containing culture media (see above) and maintained at 37 °C with 5% CO2. Once the cultures reached confluence and 1 week later, the flasks were mildly shaken overnight to remove microglia and oligodendrocytes. When astrocytes were seeded for experiments, media was changed to DMEM supplemented with 5% FBS instead of 10% FBS.
Lactate dehydrogenase (LDH) release from damaged cells was assessed colorimetrically with LDH Cytotoxicity Assay Kit (Pierce) according to the manufacturer's instructions. Activity is proportional to colorimetric reduction of tetrazolium salt measured at 490 nm. Cytotoxicity was normalized to maximal LDH activity as released from cells acutely exposed to Triton X‐100, and calculated using the formula: % Cytotoxicity = (Compound‐treated LDH activity – Spontaneous LDH activity)/(Maximum LDH activity – Spontaneous LDH activity) × 100%.
The media was then replaced by fresh PDM with or without TX14(A). Cells were incubated for a further 24 hr before carrying out the LDH reaction on 50 μL of media.

astrocytes [3] = assay: Scratch wound assay (astrocyte migration); format: cell-based, Wistar rat; conditions: for wound closure: monitored 72 hr, n = 5, triplicates; for ability of astrocytes to close the wound: PDM, n = 6, triplicates
Procedure: A wound recovery assay was carried out to analyze the migration of astrocytes using the IncuCyte system (Essen BioScience Inc., Ann Arbor, MI). Primary astrocytes were seeded in ImageLock 96‐well plates (4,379, Essen BioScience) at a density of 4 × 10^4 per well. After 24 hr, standardized and reproducible (700–800 μm wide) scratch “wounds” were created in all wells using a dedicated device. Cultures were exposed to different testing conditions, for example, stressors, and were maintained and imaged at hourly intervals up to 72 hr.
Cell density was measured in the scratch area and compared to undisrupted adjacent monolayer. Relative wound density (%), a measure of wound recovery, was calculated using the formula: Relative wound density (%) = (Density of wound region at certain time point – Initial density of wound region)/(Density of intact cell region at certain time point − Initial density of wound) × 100%.

astrocytes [4] = assay: DAPI staining, astrocyte cell number; format: cell-based, Wistar rat; conditions: for cell numbers (DAPI) vs control: n = 4, triplicates, Dunnett's
Procedure: Astrocytes were seeded in 96‐well plate (1 × 10^4 per well) and fixed in 4% paraformaldehyde for 5 min, washed in PBS three times for 5 min each time before and after incubating with 1 μg/mL DAPI for 10 min. Round and whole nuclei in nine fields of view per well were counted using ImageJ (NIH, Bethesda, MD).

PSAP = assay: Immunodetection (Western blot) of PSAP in neuron-astrocyte co-culture media; format: cell-based, Wistar rat; conditions: H2O2 stress applied to neurons, Figure S9
GPR37L1/GPR37 = assay: Luminescence-based GloSensor cAMP assay in astrocytes; format: cell-based, Wistar rat; conditions: NKH477 1 μM, rat astrocytes
Procedure: The GloSensor assay uses genetically encoded biosensor variants with cAMP binding domains fused to mutant forms of Photinus pyralis luciferase. The luminescence of the reporter increases directly proportionally to the amount of cAMP present. Astrocytes were seeded in 96‐well plates and transduced with an AVV bearing the CMV‐driven GLO22F at multiplicity of infection (MOI) 10. After 24 hr transduction, media was exchanged for 100 μL HEPES‐buffered HBSS (pH 7.6). Cells were then incubated with 0.731 mM beetle luciferin for 2 hr in the dark. After baseline reading, NKH477 and/or TX14(A) were added to the wells and incubated for 20 min. Luminescence measurements were obtained using a Tecan microplate reader (Infinite M200 PRO).

neuroblastoma NS20 line [5] = test system: neuroblastoma NS20 line; parameters: method as in O'Brien et al., 1994; conditions: ref O'Brien et al., 1994; cited from earlier work
gerbils = test system: gerbils; parameters: method as in Sano et al., 1994; conditions: recombinant, chronic icv infusion, ref Sano et al., 1994; cited from earlier work
neuroblastoma NS20 line [6] = molecular target: neuroblastoma NS20 line; parameters: method as in O'Brien et al., 1994; conditions: radio-labeled Sap C, ref O'Brien et al., 1994, read-out: Kd of specific binding; cited from earlier work
receptor of ~54 kDa = conditions: ref Hiraiwa et al., 1997; cited from earlier work

Chain of GPR37 (rat, endogenous in astrocytes) (rat (endogenous in primary astrocytes)) (Q9QYC6 27-603): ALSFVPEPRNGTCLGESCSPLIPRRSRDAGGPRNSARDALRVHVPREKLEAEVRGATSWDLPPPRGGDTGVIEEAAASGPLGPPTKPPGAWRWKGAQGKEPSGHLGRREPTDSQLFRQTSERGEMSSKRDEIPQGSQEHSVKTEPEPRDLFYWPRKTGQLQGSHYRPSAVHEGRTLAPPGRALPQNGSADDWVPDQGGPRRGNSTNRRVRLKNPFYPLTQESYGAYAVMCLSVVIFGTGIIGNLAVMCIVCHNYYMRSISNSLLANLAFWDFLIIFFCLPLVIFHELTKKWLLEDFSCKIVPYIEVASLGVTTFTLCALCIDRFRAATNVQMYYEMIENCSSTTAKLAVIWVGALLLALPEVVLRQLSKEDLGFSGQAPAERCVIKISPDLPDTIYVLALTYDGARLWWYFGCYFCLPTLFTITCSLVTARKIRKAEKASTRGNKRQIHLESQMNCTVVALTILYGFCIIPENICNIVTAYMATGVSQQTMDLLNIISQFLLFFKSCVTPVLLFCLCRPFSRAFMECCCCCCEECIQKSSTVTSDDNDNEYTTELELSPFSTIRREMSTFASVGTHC
Chain of GPR37L1 (rat, endogenous in astrocytes) (rat (endogenous in primary astrocytes)) (Q9QYC5 25-481): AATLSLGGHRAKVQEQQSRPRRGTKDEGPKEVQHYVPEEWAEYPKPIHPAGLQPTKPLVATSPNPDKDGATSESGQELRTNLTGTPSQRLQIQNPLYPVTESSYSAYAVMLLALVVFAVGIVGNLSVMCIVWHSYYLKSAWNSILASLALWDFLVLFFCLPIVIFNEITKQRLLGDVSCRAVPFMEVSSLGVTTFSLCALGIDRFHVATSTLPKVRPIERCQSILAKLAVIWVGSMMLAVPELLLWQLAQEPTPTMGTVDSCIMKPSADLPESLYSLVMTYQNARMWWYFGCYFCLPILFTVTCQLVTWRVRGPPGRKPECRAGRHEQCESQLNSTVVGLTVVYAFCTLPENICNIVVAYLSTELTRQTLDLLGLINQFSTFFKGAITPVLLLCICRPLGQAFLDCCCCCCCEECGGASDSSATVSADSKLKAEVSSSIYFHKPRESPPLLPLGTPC

prosaptide TX14(A) (peptide)
inhibition of NKH477 (1 μM)-raised cAMP in rat astrocytes, GloSensor luminescence, concentration-response of TX14(A); obliterated by combined knock-down of GPR37L1 and GPR37 [1]: 17.8 nM | percent inhibition of NKH477-mediated cAMP production in rat astrocytes at the maximal concentration of TX14(A) used (200 nM), GloSensor [1]: 40% | inhibition of NKH477 (1 μM)-raised cAMP in rat astrocytes, GloSensor luminescence, concentration-response of TX14(A); obliterated by combined knock-down of GPR37L1 and GPR37 [2]: 17.8 nM | percent inhibition of NKH477-mediated cAMP production in rat astrocytes at the maximal concentration of TX14(A) used (200 nM), GloSensor [2]: 40%

C=C(C)[C@H]1Cc2c(ccc3c2O[C@@H]2COc4cc(OC)c(OC)cc4[C@@H]2C3=O)O1 [rotenone]
cytotoxicity (LDH release) (primary astrocytes; rotenone 100 μM): comparable degree of cytotoxicity

O=C(Nc1ncnc2c1ncn2[C@@H]1O[C@@H]2COP(=O)(O)O[C@H]2[C@H]1O)c1ccccc1 [6‐BenZ‐cAMP]
wound closure (astrocytes [3]; 6-benz-cAMP 250–1,000 μM, concentration-dependent): greatly slowed down wound closure | cell numbers (DAPI) vs control (astrocytes [4]; 6-BenZ-cAMP 500 μM): significantly decreased cell numbers as compared to control

OO [H2O2]
ability of astrocytes to close the wound (astrocytes [3]; H2O2, 5 hr pre-exposure, 48 hr): drastically inhibited their ability to close the wound | PSAP in co-culture media (PSAP): increase in PSAP in co‐culture media in response to H2O2 stress | cytotoxicity (LDH release) (primary astrocytes; H2O2 250 μM): comparable degree of cytotoxicity

C=C[C@@]1(C)CC(=O)[C@]2(O)[C@@]3(C)[C@@H](O)CCC(C)(C)[C@@H]3[C@H](OC(=O)CCN(C)C)[C@H](OC(C)=O)[C@@]2(C)O1.Cl [NKH477]
increase of baseline cAMP levels (GPR37L1/GPR37): ~ 20 fold | cell numbers (DAPI) vs control (astrocytes [4]; NKH477 10 μM): significantly decreased cell numbers as compared to control

CN[C@@H]1C[C@H]2O[C@@](C)([C@@H]1OC)n1c3ccccc3c3c4c(c5c6ccccc6n2c5c31)C(=O)NC4 [staurosporine]
ability of astrocytes to close the wound (astrocytes [3]; staurosporine, 5 hr pre-exposure, 48 hr): drastically inhibited their ability to close the wound | cytotoxicity (LDH release) (primary astrocytes; staurosporine 200 nM): comparable degree of cytotoxicity

CO[C@@H]1[C@@H]2OP(=O)(O)OC[C@H]2O[C@H]1n1c(Sc2ccc(Cl)cc2)nc2c(N)ncnc21 [8‐pCPT‐2′‐O‐Me‐cAMP]
wound closure (astrocytes [3]; 8-pCPT-2′-O-Me-cAMP 250–1,000 μM): had no effect | cell numbers (DAPI) vs control (astrocytes [4]; 8-pCPT-2′-O-Me-cAMP 1,000 μM): significantly decreased cell numbers as compared to control

B1: PSAP: prosaposin, neurotrophic factor, precursor of Saposin C (protein)
chain: SPVLGLRECTRGSAVWCQNVKTAADCGAVQHCLQTVWSKPTVKSLPCDICKDVITAAGNLLKDNATEQEILMYLERTCDWLPKPNMSASCKEIVDSYLPVILDMIKGQMSHPGEVCSALNLCESLQKHLAELNHQKQLESNQIPELDMAEVVAPFMANIPFLLYPQDGSHSKPQPKKANGNVCQDCIQLVTDVQEALRTNSTFVEALVDHAKEECDRLGPGMSDMCKNYINQYSEVAIQMVMHMQPKEICVLAGFCDEVKEMPMKTLVPAEVVSENVIPALGLVEPIKKDPAPAKADIYCEVCEFVVKEVAKLIDNNRTEEEILHALDKVCSKLPTSLAEQCQEVVDTYGSSILSILLDEASPELVCSMLHLCSSRGLPAATVRVMPRKDGGFCEVCKKLVGYLDRNLEKNSTKEQILAALEKGCSFLPDQYRKQCDQFVTEYEPVLIEILVEVMDPSFVCLKIGACPAAHKPLLGAEKCVWGPSYWCQNMESAALCNAVEHCRRHVWN
wound closure after PSAP depletion (astrocytes [3]; PSAP depleted by immunoadsorption vs FBS-containing media, 48 hr): drastically slowed down by PSAP depletion | number of cells in cultures (DAPI) (astrocytes [4]; TX14(A) 100 nM in PDM, or PSAP depletion, n = 15): neither depletion of PSAP nor addition of TX14(A) affected the number of cells in cultures | neurotrophic activity (neuroblastoma NS20 line [5]): identified as neurotrophic factors | ischemia-induced learning deficits and neuronal loss (gerbils): almost completely prevented ischemia‐induced learning deficits and neuronal loss

B2: Sap C: Saposin C, fragment of prosaposin (protein, UniProt P07602 311-390, looked up)
Saposin-C: SDVYCEVCEFLVKEVTKLIDNNKTEKEILDAFDKMCSKLPKSLSEECQEVVDTYGSSILSILLEEVSPELVCSMLHLCSG
modifications: Saposin-C
notes: Saposin C, fragment of prosaposin
Kd (neuroblastoma NS20 line [6]): 0.019 nM | neurotrophic activity (neuroblastoma NS20 line [5]): identified as neurotrophic factors | interaction with receptor (molecular mass) (receptor of ~54 kDa): interacts with a receptor of ~54 kDa
